Key:
[1] = tested on: Mycosphaerella arachidis Syn. Cercospora arachidicola; experiment: Mycosphaerella arachidis liquid culture growth inhibition (microtiter plate, PDB, photometric); assay type: cell-based; settings: read-out: Observed Activity (%); for inhibition at 10 ppm: single compound 10 ppm; for inhibition at 20 ppm: single compound 20 ppm; for inhibition at 0.625 ppm: single compound 0.625 ppm; for inhibition at 1.25 ppm: single compound 1.25 ppm; for inhibition at 2.5 ppm: single compound 2.5 ppm; for inhibition at 5 ppm: single compound 5 ppm
Description: Mycosphaerella arachidis Syn. Cercospora arachidicola (Brown Leaf Spot of Peanut): Conidia of the fungus from cryogenic storage were directly mixed into nutrient broth (PDB potato dextrose broth). A DMSO solution of the test compounds was placed into a microtiter plate (96-well format) and the nutrient broth containing the fungal spores was added to it. The test plates were incubated at 24° C. and the inhibition of growth was determined photometrically after 5-6 days at 620 nm.

Septoria Glycines = experiment: Septoria glycines liquid culture growth inhibition (microtiter plate, PDB, visual); assay type: cell-based; settings: read-out: Observed Activity (%)
Description: (§1) Septoria Glycines (Brown Spot): Conidia of the fungus from cryogenic storage were directly mixed into nutrient broth (PDB potato dextrose broth). A DMSO solution of the test compounds was placed into a microtiter plate (96-well format) and the nutrient broth containing the fungal spores was added to it.

Septoria tritici = Septoria tritici liquid culture growth inhibition (microtiter plate, PDB, photometric); assay type: cell-based; settings: Zymoseptoria tritici, read-out: Observed Activity (%)
Description: as §1, with “tritici (Leaf Blotch):” for “Glycines (Brown Spot):”

Phakopsora pachyrhizi = Phakopsora pachyrhizi soybean rust, treated plants / leaf disk test; assay type: in vivo; settings: foliar, read-out: Observed Activity (%); for inhibition at 15 g/ha: single compound 15 g/ha
Description: Phakopsora pachyrhizi (Soybean Rust):
Whole soybean plants are treated with the recited active ingredients 4 weeks after planting. 1 day after spraying leaf disks are cut from the first trifoliate leaf. Five repetitions at each rate are conducted. The leaf disks are inoculated with Phakopsora pachyrhizi (Asian soybean rust) one day after treatment. Evaluation of the leaf disks is conducted 11 to 14 days after inoculation and the activity is derived from the relation of the treated vs untreated, infested check. The rates of the active ingredients used are given in Table as g active ingredient (a.i.)/ha.

Work on `CNC(=O)C(F)(F)c1ccc(-c2noc(C(F)(F)F)n2)cc1` [2,2-difluoro-N-methyl-2-[4-[5-(trifluoromethyl)-1,2,4-oxadiazol-3-yl]phenyl]acetamide] yielded an inhibition at 10 ppm [1] of 20% and an inhibition at 20 ppm [1] of 50%.
Compound `N#Cc1ccc(Oc2ccc(C(F)(F)C(O)(Cn3nc[nH]c3=S)c3ccc(F)cc3F)nc2)cc1` (stereo not drawn) [4-[[6-[2-(2,4-Difluorophenyl)-1,1-difluoro-2-hydroxy-3-(5-thioxo-4H-1,2,4-triazol-1-yl)propyl]-3-pyridyl]oxy]benzonitrile] has an inhibition at 0.25 ppm (Septoria Glycines; single compound 0.25 ppm) of 20% and an inhibition at 0.5 ppm (Septoria Glycines; single compound 0.5 ppm) of 20%.
`Cc1cc(C2=NC(C)(C)C(F)(F)c3ccccc32)cnc1C` [Compound A-1.1, 1-(5,6-dimethyl-3-pyridyl)-4,4-difluoro-3,3-dimethyl-isoquinoline] was tested, and the inhibition at 1.25 ppm (Septoria tritici; single compound 1.25 ppm) was 0%, the inhibition at 2.5 ppm (Septoria tritici; single compound 2.5 ppm) was 0% and the inhibition at 5 ppm (Septoria tritici; single compound 5 ppm) was 20%. It also gave an inhibition at 10 ppm (Septoria tritici; single compound 10 ppm) of 50%, an inhibition at 20 ppm (Septoria tritici; single compound 20 ppm) of 70% and an inhibition at 15 g/ha (Phakopsora pachyrhizi) of 2%. The inhibition at 30 g/ha (Phakopsora pachyrhizi; single compound 30 g/ha) was 4%, the inhibition at 0.625 ppm [1] was 0% and the inhibition at 1.25 ppm [1] was 0%. For the same compound, the inhibition at 2.5 ppm [1] was 0%, the inhibition at 5 ppm [1] was 0% and the inhibition at 10 ppm [1] was 0%. It also gave an inhibition at 20 ppm [1] of 20%, an inhibition at 5 ppm (Septoria Glycines; single compound 5 ppm) of 0% and an inhibition at 10 ppm (Septoria Glycines; single compound 10 ppm) of 20%. For the same compound, the inhibition at 20 ppm (Septoria Glycines; single compound 20 ppm) was 50%.
With `Cc1cc(C2=NC(C)(C)C(F)(F)c3ccccc32)cnc1C(F)F` [Compound A-1.2, 1-[6-(difluoromethyl)-5-methyl-3-pyridyl]-4,4-difluoro-3,3-dimethyl-isoquinoline] the inhibition at 15 g/ha (Phakopsora pachyrhizi) was 12%, the inhibition at 0.625 ppm [1] was 0% and the inhibition at 1.25 ppm [1] was 0%. For the same compound, the inhibition at 2.5 ppm [1] was 0%, the inhibition at 5 ppm [1] was 0% and the inhibition at 10 ppm [1] was 20%. For the same compound, the inhibition at 20 ppm [1] was 50%.
For `O=C(Nc1ccccc1F)c1ccc(-c2noc(C(F)(F)F)n2)cc1` [N-(2-fluorophenyl)-4-[5-(trifluoromethyl)-1,2,4-oxadiazol-3-yl]benzamide], the inhibition at 0.75 g/ha (Phakopsora pachyrhizi; single compound 0.75 g/ha) was 27% and the inhibition at 1.5 g/ha (Phakopsora pachyrhizi; single compound 1.5 g/ha) was 45%.
Work on `CNC(=S)c1ccc(-c2noc(C(F)(F)F)n2)cc1` [N-methyl-4-[5-(trifluoromethyl)-1,2,4-oxadiazol-3-yl]benzenecarbothioamide] yielded an inhibition at 6 ppm (Septoria tritici; single compound 6 ppm) of 50%, an inhibition at 3 ppm ([1]; single compound 3 ppm) of 70% and an inhibition at 6 ppm ([1]; single compound 6 ppm) of 90%.
With `CCN(C)C=Nc1cc(C)c(Oc2ccccc2F)cc1Cl` [N′-[2-chloro-4-(2-fluorophenoxy)-5-methyl-phenyl]-N-ethyl-N-methyl-formamidine] the inhibition at 1 g/ha (Phakopsora pachyrhizi; single compound 1 g/ha) was 4%, the inhibition at 2 g/ha (Phakopsora pachyrhizi; single compound 2 g/ha) was 13% and the inhibition at 1 ppm ([1]; single compound 1 ppm) was 70%. It also gave an inhibition at 2 ppm ([1]; single compound 2 ppm) of 90%.

Source: patent publication US20230371512A1, “FUNGICIDAL COMPOSITIONS” (SYNGENTA CROP PROTECTION AG, priority 2020, published 2023)
